From PubChem BioAssay AID1963847 (Molecular Pharmacology Branch, DTP, NCI, 2024)
pIC50: −log10 of the molar value.

Tested on: 415267-285-R-J2-PDC complex spheroid viability
Test: Anticancer human tumor 415267-285-R-J2-PDC patient-derived breast carcinoma cell line growth inhibition [POLQ]
Conditions: for pIC50: curve of first compound; for viability, T/C: stronger effect = lower value
How it was run: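 Complex spheroid viability model combining PDC tumour cells with endothelial (HUVEC) and MSC stromal cells. Novobiocin, ART-558 or RP6685 were tested singly and in combination with standard and investigational anticancer drugs. Each was titrated in half-log steps from near clinical Cmax, or from 10 microM where Cmax was unknown.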
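Further: spheroids exposed to compounds for one week before readout.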
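Wherever viability, T/C is given: luminescence used as stand-in measure of viable cells; 100% = DMSO vehicle control viability.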

CC(=O)O[C@H]1C(=O)[C@@]2(C)[C@H]([C@H](OC(=O)c3ccccc3)[C@]3(O)C[C@H](OC(=O)[C@H](O)[C@@H](NC(=O)c4ccccc4)c4ccccc4)C(C)=C1C3(C)C)[C@]1(OC(C)=O)CO[C@@H]1C[C@@H]2O + Cc1cccc(N(C)C(=O)C2C(O)CCN2c2nc(C)cc(C(F)(F)F)c2C#N)c1
pIC50 (second compound 0.0316 µM): > 8.02 | pIC50 (second compound 0.1 µM): > 8.02 | pIC50 (second compound 0.316 µM): > 8.02 | pIC50 (second compound 1 µM): > 8.02 | pIC50 (second compound 3.16 µM): > 8.02 | pIC50 (second compound 10 µM): > 8.02 | viability, T/C (second compound 0.0316 µM, first compound 0.00949 µM): 17.5% | viability, T/C (second compound 0.0316 µM, first compound 0.03 µM): 9.49% | viability, T/C (second compound 0.0316 µM, first compound 0.0949 µM): 9.45% | viability, T/C (second compound 0.0316 µM, first compound 0.3 µM): 5.12% | viability, T/C (second compound 0.0316 µM, first compound 0.949 µM): 6.11% | viability, T/C (second compound 0.0316 µM, first compound 3 µM): 8.5% | viability, T/C (second compound 0.1 µM, first compound 0.00949 µM): 14.3% | viability, T/C (second compound 0.1 µM, first compound 0.03 µM): 10.3% | viability, T/C (second compound 0.1 µM, first compound 0.0949 µM): 6.91% | viability, T/C (second compound 0.1 µM, first compound 0.3 µM): 5.82% | viability, T/C (second compound 0.1 µM, first compound 0.949 µM): 6.96% | viability, T/C (second compound 0.1 µM, first compound 3 µM): 7.65% | viability, T/C (second compound 0.316 µM, first compound 0.00949 µM): 15.2% | viability, T/C (second compound 0.316 µM, first compound 0.03 µM): 10.9% | viability, T/C (second compound 0.316 µM, first compound 0.0949 µM): 8.77% | viability, T/C (second compound 0.316 µM, first compound 0.3 µM): 8.04% | viability, T/C (second compound 0.316 µM, first compound 0.949 µM): 7.71% | viability, T/C (second compound 0.316 µM, first compound 3 µM): 6.2% | viability, T/C (second compound 1 µM, first compound 0.00949 µM): 16.9% | viability, T/C (second compound 1 µM, first compound 0.03 µM): 8.87% | viability, T/C (second compound 1 µM, first compound 0.0949 µM): 7.59% | viability, T/C (second compound 1 µM, first compound 0.3 µM): 5.96% | viability, T/C (second compound 1 µM, first compound 0.949 µM): 7.86% | viability, T/C (second compound 1 µM, first compound 3 µM): 7.38% | viability, T/C (second compound 3.16 µM, first compound 0.00949 µM): 13.7% | viability, T/C (second compound 3.16 µM, first compound 0.03 µM): 9.96% | viability, T/C (second compound 3.16 µM, first compound 0.0949 µM): 7.09% | viability, T/C (second compound 3.16 µM, first compound 0.3 µM): 7.4% | viability, T/C (second compound 3.16 µM, first compound 0.949 µM): 6.8% | viability, T/C (second compound 3.16 µM, first compound 3 µM): 8.17% | viability, T/C (second compound 10 µM, first compound 0.00949 µM): 12.7% | viability, T/C (second compound 10 µM, first compound 0.03 µM): 10% | viability, T/C (second compound 10 µM, first compound 0.0949 µM): 8.12% | viability, T/C (second compound 10 µM, first compound 0.3 µM): 8.5% | viability, T/C (second compound 10 µM, first compound 0.949 µM): 8.14% | viability, T/C (second compound 10 µM, first compound 3 µM): 9.36%

CCc1c2c(nc3ccc(O)cc13)-c1cc3c(c(=O)n1C2)COC(=O)[C@]3(O)CC + COC1C(OC(N)=O)C(O)C(Oc2ccc3c(O)c(NC(=O)c4ccc(O)c(CC=C(C)C)c4)c(=O)oc3c2C)OC1(C)C
pIC50 (second compound 0.0316 µM): > 8.50 | pIC50 (second compound 0.1 µM): > 8.50 | pIC50 (second compound 0.316 µM): > 8.50 | pIC50 (second compound 1 µM): > 8.50 | pIC50 (second compound 3.16 µM): > 8.50 | pIC50 (second compound 10 µM): > 8.50 | viability, T/C (second compound 0.0316 µM, first compound 0.00316 µM): 32.7% | viability, T/C (second compound 0.0316 µM, first compound 0.01 µM): 10% | viability, T/C (second compound 0.0316 µM, first compound 0.0316 µM): 6.54% | viability, T/C (second compound 0.0316 µM, first compound 0.1 µM): 4.82% | viability, T/C (second compound 0.0316 µM, first compound 0.316 µM): 3.41% | viability, T/C (second compound 0.0316 µM, first compound 1 µM): 1.27% | viability, T/C (second compound 0.1 µM, first compound 0.00316 µM): 38.3% | viability, T/C (second compound 0.1 µM, first compound 0.01 µM): 11% | viability, T/C (second compound 0.1 µM, first compound 0.0316 µM): 7.02% | viability, T/C (second compound 0.1 µM, first compound 0.1 µM): 5.02% | viability, T/C (second compound 0.1 µM, first compound 0.316 µM): 3.21% | viability, T/C (second compound 0.1 µM, first compound 1 µM): 1.32% | viability, T/C (second compound 0.316 µM, first compound 0.00316 µM): 36.5% | viability, T/C (second compound 0.316 µM, first compound 0.01 µM): 11% | viability, T/C (second compound 0.316 µM, first compound 0.0316 µM): 9.37% | viability, T/C (second compound 0.316 µM, first compound 0.1 µM): 4.84% | viability, T/C (second compound 0.316 µM, first compound 0.316 µM): 5.41% | viability, T/C (second compound 0.316 µM, first compound 1 µM): 1.19% | viability, T/C (second compound 1 µM, first compound 0.00316 µM): 43.8% | viability, T/C (second compound 1 µM, first compound 0.01 µM): 9.67% | viability, T/C (second compound 1 µM, first compound 0.0316 µM): 7.66% | viability, T/C (second compound 1 µM, first compound 0.1 µM): 4.1% | viability, T/C (second compound 1 µM, first compound 0.316 µM): 4.05% | viability, T/C (second compound 1 µM, first compound 1 µM): 1.96% | viability, T/C (second compound 3.16 µM, first compound 0.00316 µM): 39.8% | viability, T/C (second compound 3.16 µM, first compound 0.01 µM): 9.67% | viability, T/C (second compound 3.16 µM, first compound 0.0316 µM): 6.74% | viability, T/C (second compound 3.16 µM, first compound 0.1 µM): 4.81% | viability, T/C (second compound 3.16 µM, first compound 0.316 µM): 3.35% | viability, T/C (second compound 3.16 µM, first compound 1 µM): 1.51% | viability, T/C (second compound 10 µM, first compound 0.00316 µM): 40.3% | viability, T/C (second compound 10 µM, first compound 0.01 µM): 10.1% | viability, T/C (second compound 10 µM, first compound 0.0316 µM): 7.22% | viability, T/C (second compound 10 µM, first compound 0.1 µM): 4.24% | viability, T/C (second compound 10 µM, first compound 0.316 µM): 3.48% | viability, T/C (second compound 10 µM, first compound 1 µM): 1.63%
